What follows are compounds tested against T1, dihydrolipoamide acyltransferase (DlaT) (Mycobacterium tuberculosis, UniProt P9WIS7) (assay: DlaT inhibition (Dlat IC50); DTNB peroxidase assay with Lpd, DlaT and AhpD). Conditions: Dlat IC50 category.
T1 sequence (P9WIS7 1-553): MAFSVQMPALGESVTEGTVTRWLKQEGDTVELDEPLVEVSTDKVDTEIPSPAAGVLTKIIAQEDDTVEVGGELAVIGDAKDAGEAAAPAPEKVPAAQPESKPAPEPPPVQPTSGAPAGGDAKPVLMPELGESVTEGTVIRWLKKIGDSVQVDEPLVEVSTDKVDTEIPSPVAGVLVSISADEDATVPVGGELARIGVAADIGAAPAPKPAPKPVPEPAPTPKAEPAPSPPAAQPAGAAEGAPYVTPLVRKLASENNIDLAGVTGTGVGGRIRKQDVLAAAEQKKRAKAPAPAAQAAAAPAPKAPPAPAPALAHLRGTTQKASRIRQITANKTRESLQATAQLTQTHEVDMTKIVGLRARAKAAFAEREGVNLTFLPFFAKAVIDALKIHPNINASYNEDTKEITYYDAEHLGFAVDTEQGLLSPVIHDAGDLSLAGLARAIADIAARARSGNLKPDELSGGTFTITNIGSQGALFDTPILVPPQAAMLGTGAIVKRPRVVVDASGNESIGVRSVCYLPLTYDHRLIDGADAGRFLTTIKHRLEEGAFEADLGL
Format: biochemical
Work on `O=C(O)C(c1ccccc1)N1C(=O)C(=Cc2ccc(-c3ccccc3Cl)o2)SC1=S` (stereo not shown) [Compound B1] yielded an IC50 of less than 10 µM.
Compound `O=C(O)C(c1ccccc1)N1C(=O)C(=Cc2ccc(-c3cccc(Cl)c3)o2)SC1=S` (stereo not shown) [Compound B2] has an IC50 of less than 10 µM.
With `O=C(O)CCN1C(=O)C(=Cc2ccc(-c3cccc(C(F)(F)F)c3)o2)SC1=S` [Compound B3] the IC50 was less than 10 µM.
With `O=C(O)CCN1C(=O)C(=Cc2ccc(-c3ccccc3C(F)(F)F)o2)SC1=S` [Compound B4] the IC50 was 11 to 40 µM.
Work on `O=C(O)CCN1C(=O)C(=Cc2ccc(-c3ccccc3Cl)o2)SC1=S` [Compound B5] yielded an IC50 of 11 to 40 µM.
With `O=C(O)CN1C(=O)C(=Cc2ccc(-c3ccccc3Cl)o2)SC1=S` [Compound B6] the IC50 was 11 to 40 µM.
In the case of `O=C(O)CCN1C(=O)C(=Cc2cccc(-c3ccccc3Cl)n2)SC1=S` [Compound B7], the IC50 is reported as 41 to 80 µM.
For `O=C(O)C(c1ccccc1)N1C(=O)C(=Cc2cccc(-c3ccccc3Cl)n2)SC1=S` (stereo not shown) [Compound B8], the IC50 was 11 to 40 µM.
`O=C(O)C(c1ccccc1)N1C(=O)C(=Cc2ccc(-c3ccc(Cl)cc3)o2)SC1=S` (stereo not shown) [Compound B9] showed an IC50 of less than 10 µM.
With `O=C(O)C(c1ccccc1)N1C(=O)C(=Cc2ccc(-c3ccc(Cl)c(Cl)c3)o2)SC1=S` (stereo not shown) [Compound B10] the IC50 was less than 10 µM.
Work on `O=C(O)CCCCCN1C(=O)C(=Cc2ccc(-c3ccccc3Cl)o2)SC1=S` [Compound B11] yielded an IC50 of less than 10 µM.
With `O=C(O)CCCCCN1C(=O)C(=Cc2ccc(-c3cccc(Cl)c3)o2)SC1=S` [Compound B12] the IC50 was less than 10 µM.
Compound `O=C(O)CCCCCN1C(=O)C(=Cc2ccc(-c3ccc(Cl)cc3)o2)SC1=S` [Compound B13] has an IC50 of less than 10 µM.
With `O=C(O)CCCCCN1C(=O)C(=Cc2ccc(-c3ccc(Cl)c(Cl)c3)o2)SC1=S` [Compound B14] the IC50 was less than 10 µM.
With `O=C(O)CCCCCN1C(=O)C(=Cc2cccc(-c3ccccc3Cl)n2)SC1=S` [Compound B15] the IC50 was 11 to 40 µM.
Compound `O=C(O)CN1C(=O)C(=Cc2ccc(-c3ccc(-c4ccccc4)cc3)o2)SC1=S` [Compound B16] has an IC50 of less than 10 µM.
Work on `O=C(O)CCN1C(=O)C(=Cc2ccc(-c3ccc(-c4ccccc4)cc3)o2)SC1=S` [Compound B17] yielded an IC50 of 11 to 40 µM.
In the case of `O=C(O)CCCCCN1C(=O)C(=Cc2ccc(-c3ccc(-c4ccccc4)cc3)o2)SC1=S` [Compound B18], the IC50 is reported as less than 10 µM.

Same assay, conditions: Table 1, Compounds A1 to A294; read-out: Dlat IC50 category
With `O=C(O)c1cc(N2C(=O)C(=Cc3ccc(-c4ccccc4C(F)(F)F)o3)SC2=S)ccc1F` [Compound A280] the IC50 was 11 to 40 µM.
Work on `O=C(O)c1cc(N2C(=O)C(=Cc3ccc(-c4ccccc4OC(F)(F)F)o3)SC2=S)ccc1F` [Compound A281] yielded an IC50 of less than 10 µM.
For `CSc1ccccc1-c1ccc(C=C2SC(=S)N(c3ccc(F)c(C(=O)O)c3)C2=O)o1` [Compound A282], the IC50 was less than 10 µM.
Work on `O=C(O)c1cc(N2C(=O)C(=Cc3ccc(-c4ccccc4Oc4ccccc4)o3)SC2=S)ccc1F` [Compound A283] yielded an IC50 of less than 10 µM.
`O=C(O)c1cc(N2C(=O)C(=Cc3ccc(-c4ccccc4-c4ccccc4)o3)SC2=S)ccc1F` [Compound A284] gave an IC50 of less than 10 µM.
`CNS(=O)(=O)c1ccc(-c2ccc(C=C3SC(=S)N(c4cccc(C(=O)O)c4)C3=O)o2)cc1` [Compound A286] gave an IC50 of 11 to 40 µM.
`CNS(=O)(=O)c1ccc(-c2ccc(C=C3SC(=S)N(c4ccc(F)c(C(=O)O)c4)C3=O)o2)cc1` [Compound A287] was tested, and the IC50 was 11 to 40 µM.
Compound `NS(=O)(=O)c1ccc(-c2ccc(C=C3SC(=S)N(c4cccc(C(=O)O)c4)C3=O)o2)cc1` [Compound A288] has an IC50 of 11 to 40 µM.
Compound `O=C(O)c1ccc(-c2ccc(C=C3SC(=S)N(c4ccccc4)C3=O)o2)cc1O` [Compound A289] has an IC50 of less than 10 µM.
`O=C(O)c1ccc(-c2ccc(C=C3SC(=S)N(c4cccc(O)c4)C3=O)o2)cc1` [Compound A290] showed an IC50 of less than 10 µM.
Work on `O=C(O)c1ccc(-c2ccc(C=C3SC(=S)N(c4ccc(O)cc4)C3=O)o2)cc1` [Compound A291] yielded an IC50 of less than 10 µM.
Work on `NC(=O)c1cccc(N2C(=O)C(=Cc3ccc(-c4ccc(C(=O)O)cc4)o3)SC2=S)c1` [Compound A293] yielded an IC50 of 11 to 40 µM.
With `NS(=O)(=O)c1ccc(N2C(=O)C(=Cc3ccc(-c4ccc(C(=O)O)cc4)o3)SC2=S)cc1` [Compound A294] the IC50 was less than 10 µM.
